{"source": "patent US20250154611A1", "about": "“SYSTEMS AND METHODS TO DETECT STEM CELL STRESS AND USES THEREOF” (Wayne State University, priority 2014, published 2025)", "key": {"Rex1-RFP ESCs": {"test_system": "Rex1-RFP ESCs", "experiment": "Cell counts and doubling rate of Rex1-RFP ESCs at time zero and 3 days of sorbitol", "format": "cell-based, mouse", "conditions": "72 hr; for Doubling Rate: 0 mM 32.7 hr; for Relative Cell# (Total #, OUTSIDE BOX): time zero = 100, 0 mM = 460", "from_the_text": "FIG. 28. Partial validation of the Theory of Compensatory Differentiation whereby stress decreases in size the normal levels of stem cell expansion and, in the nonmorbid stress range where doubling rates were near-normal, the diminished potency group that is enabled to differentiate is constant in size. […] A modified Venn diagram from previous modeling is presented here and analyzed with respect to supporting flow cytometry data for changes in potency subpopulation sizes derived from Table 8 and discussed in the text. For convenience, Table 8 is reproduced here:\nFinally it was tested whether endogenous Rex1 protein levels decreased commensurately with decreases in Rex1-RFP activity levels assayed in FIG. 24. Rex1-RFP ESCs were cultured for 3 days with 0-300 mM sorbitol and assayed by immunoblot for endogenous Rex1 levels normalized to ACTB loading controls and with time zero unstressed Rex1 set to 100 as a baseline level. Whereas stress-induced decrease in Rex1 activity in FIG. 24 were 20% and 70% at 200 mM and 300 mM sorbitol, respectively endogenous Rex1 protein losses were 30% and 70% at 200 mM and 300 mM, respectively (FIG. 27). Through the series from 200 mM to 300 mM sorbitol there was generally good agreement between activity level and endogenous protein level for Rex1 at 3 days of stress and with Rex1 protein loss at 1 day (Example 2). To correlate stress-induced Rex1 potency loss with stress-induced diminished cell growth rates, cell counts were performed at time zero and at 3 days over the same sorbitol dose range as in FIG. 27 and FIG. 24 and FIGS. 26A & 26B. […]; see Brief Description of the Figures for Table 8).\nThe stress dose-dependent cell number of low potency cells can be determined by multiplying the fractional subpopulation size of cells with potency loss, which increases with stress and the decreasing cell numbers with increasing stress. This was done in Table 8 and compared with a previously published Venn diagram for compensatory differentiation (Puscheck, 2015, MB; Rappolee, 2013), modified to produce FIG. 28. In the stress-dose range where population size decreases, but increasing doubling rate is in a manageable range, the absolute size of the subpopulation of potency loss (intermediate and very low dim cells) is remarkably the same. At stress doses where very large doubling rate increases occur the subpopulation number with potency loss decreases, probably due to stem cell morbidity at these higher hyperosmotic stress levels (Example 2). Thus all three lines of evidence summarized here are consistent with the theory, but with limitations."}, "Rex1-RFP mESCs": {"test_system": "Rex1-RFP mESCs", "experiment": "Flow cytometry of Rex1-RFP reporter mESCs (bright, intermediate, dim subpopulations)", "format": "cell-based, mouse", "conditions": "3 days; for Bright subpopulation / Dim subpopulation / Intermediate + Dim / Intermediate subpopulation: LIF+", "description": ". Rex1-RFP mESCs expressing Rex1 promoter reporter were cultured in 12-well plates until 30% confluent, treated with 0 mM, 200 mM, and 300 mM sorbitol for 3 days, trypsinized, and cell suspensions were assayed by flow cytometry. Arbitrary thresholds (vertical red lines) were drawn at 5×10^3 on the X-axis between the middle of the two peaks and at 2 standard deviations above the mean of the parental (before infection) dim population shown in the bottom panel. Areas in parental dim, intermediate dim, and bright were defined by the 2 vertical red lines and were quantified as pixels using Image J from data in (FIG. 25A) to give histograms in (FIG. 25B).\nFIGS. 26A and 26B. Viable Rex1 promoter reporter responds with stress treatment in a dose-dependent manner in flow cytometry assay. mESCs expressing Rex1 promoter reporter were cultured in 12-well plates till 30% confluence. Cells were then treated with 200-300 mM of sorbitol in 25 mM increments for 3 days. After trypsinization, the cell suspensions were subjected for flow cytometry assay. An arbitrary threshold was drawn at 5×10^3 on the x-axis and another near the low point between the bright peak and the dimmer peak to its left (FIG. 26A). […] Intermediate and bright groups were also defined by the two vertical red lines. Area sizes of the two peaks were quantified using Image J. The histogram bars (FIG. 26B) are derived by three independent experiments, one of which is shown in (FIG. 26A), errors bars showing s.e.m., One-way ANOVA was performed followed by Dunnett's post hoc test using 0 mM as reference for parental dim, intermediate dim, and bright separately.\nFlow cytometric analysis of mESCs expressing pluripotency reporters. Fluorescence determination by the plate reader reported an averaged biochemical result from a population of cells inside the tissue culture vessel. […] This time point was designated as time zero. The cells were then treated with different sorbitol concentrations for 1-3 days. At each time point, cells were trypsinized and re-suspended in ice-cold D-PBS for flow cytometry assay using an LSR Fortessa flow cytometer (BD biosciences) and the FACS Diva Software version 7.0 (BD biosciences). Non-stressed mESCs that express Oct4-copGFP and/or Rex1-mApple and the non-modified, parental mESCs were used to set up the parameters that define the fluorescent cells and non-fluorescent cells.\nFrom the histogram of FACS, two peaks are seen. The right peak represents the bright fluorescent potent ESCs. The left peak represents the dim fluorescent non-potent ESCs. An arbitrary vertical line is drawn here at the 5×10^3 position on the PE-A axis to separate the low potency ESCs. The peak areas were calculated using Image J by counting the area pixels."}}, "note": "“And” between values parts separate entries of the source, which are not always exact repeats. Equal values may be shown once."}
{"smiles": "OC[C@@H](O)[C@@H](O)[C@H](O)[C@@H](O)CO", "note": "[sorbitol]", "values": [{"measurement": "% Dim + Intermediate × Cell# (INSIDE BOX cell number)", "setting": "Rex1-RFP ESCs; 200 mM", "value": 9893}, {"measurement": "Doubling Rate", "setting": "Rex1-RFP ESCs; 200 mM", "value": 34.1, "unit": "h"}, {"measurement": "Relative Cell# (Total #, OUTSIDE BOX)", "setting": "Rex1-RFP ESCs; 200 mM", "value": 432}, {"measurement": "% Dim + Intermediate × Cell# (INSIDE BOX cell number)", "setting": "Rex1-RFP ESCs; 225 mM", "value": 9930}, {"measurement": "Doubling Rate", "setting": "Rex1-RFP ESCs; 225 mM", "value": 35.6, "unit": "h"}, {"measurement": "Relative Cell# (Total #, OUTSIDE BOX)", "setting": "Rex1-RFP ESCs; 225 mM", "value": 407}, {"measurement": "% Dim + Intermediate × Cell# (INSIDE BOX cell number)", "setting": "Rex1-RFP ESCs; 250 mM", "value": 9968}, {"measurement": "Doubling Rate", "setting": "Rex1-RFP ESCs; 250 mM", "value": 39.3, "unit": "h"}, {"measurement": "Relative Cell# (Total #, OUTSIDE BOX)", "setting": "Rex1-RFP ESCs; 250 mM", "value": 356}, {"measurement": "% Dim + Intermediate × Cell# (INSIDE BOX cell number)", "setting": "Rex1-RFP ESCs; 275 mM", "value": 7418}, {"measurement": "Doubling Rate", "setting": "Rex1-RFP ESCs; 275 mM", "value": 51.4, "unit": "h"}, {"measurement": "% Dim + Intermediate × Cell# (INSIDE BOX cell number)", "setting": "Rex1-RFP ESCs; 300 mM", "value": 4540}, {"measurement": "Doubling Rate", "setting": "Rex1-RFP ESCs; 300 mM", "value": 103.4, "unit": "h"}, {"measurement": "Relative Cell# (Total #, OUTSIDE BOX)", "setting": "Rex1-RFP ESCs; 300 mM", "value": "161 and 162"}, {"measurement": "cell doubling rates", "setting": "Rex1-RFP ESCs; 200-250 mM range", "value": "34.1 to 39.3", "unit": "h"}, {"measurement": "cell doubling rates", "setting": "Rex1-RFP ESCs; 275-300 mM", "value": "51.4 to 103.4", "unit": "h"}, {"measurement": "decrease in high activity Rex1 subpopulation", "setting": "Rex1-RFP mESCs; 0 to 300 mM", "value": 20, "unit": "%"}, {"measurement": "decrease in the bright group", "setting": "Rex1-RFP mESCs; 0 to 300 mM", "value": 21.5, "unit": "%"}, {"measurement": "increase in parental dim ESCs", "setting": "Rex1-RFP mESCs; 0 to 300 mM", "value": 15.8, "unit": "%"}, {"measurement": "increase in the low Rex1 activity subpopulation", "setting": "Rex1-RFP mESCs; 0 to 300 mM", "value": 2.8, "unit": "fold"}, {"measurement": "total change toward intensity decrease", "setting": "Rex1-RFP mESCs; 0 to 300 mM", "value": "40.4 % of cells"}, {"measurement": "Bright subpopulation", "setting": "Rex1-RFP mESCs; 200 mM", "value": 77.1, "unit": "%"}, {"measurement": "Dim subpopulation", "setting": "Rex1-RFP mESCs; 200 mM", "value": 12.2, "unit": "%"}, {"measurement": "Intermediate + Dim", "setting": "Rex1-RFP mESCs; 200 mM", "value": 22.9, "unit": "%"}, {"measurement": "Intermediate subpopulation", "setting": "Rex1-RFP mESCs; 200 mM", "value": 10.7, "unit": "%"}, {"measurement": "Bright subpopulation", "setting": "Rex1-RFP mESCs; 225 mM", "value": 75.6, "unit": "%"}, {"measurement": "Dim subpopulation", "setting": "Rex1-RFP mESCs; 225 mM", "value": 13.7, "unit": "%"}, {"measurement": "Intermediate + Dim", "setting": "Rex1-RFP mESCs; 225 mM", "value": 24.4, "unit": "%"}, {"measurement": "Intermediate subpopulation", "setting": "Rex1-RFP mESCs; 225 mM", "value": 10.7, "unit": "%"}, {"measurement": "Bright subpopulation", "setting": "Rex1-RFP mESCs; 250 mM", "value": 72, "unit": "%"}, {"measurement": "Dim subpopulation", "setting": "Rex1-RFP mESCs; 250 mM", "value": 16.6, "unit": "%"}, {"measurement": "Intermediate + Dim", "setting": "Rex1-RFP mESCs; 250 mM", "value": 28, "unit": "%"}, {"measurement": "Intermediate subpopulation", "setting": "Rex1-RFP mESCs; 250 mM", "value": 11.4, "unit": "%"}, {"measurement": "Bright subpopulation", "setting": "Rex1-RFP mESCs; 275 mM", "value": 71.9, "unit": "%"}, {"measurement": "Dim subpopulation", "setting": "Rex1-RFP mESCs; 275 mM", "value": 17.1, "unit": "%"}, {"measurement": "Intermediate + Dim", "setting": "Rex1-RFP mESCs; 275 mM", "value": 28.1, "unit": "%"}, {"measurement": "Intermediate subpopulation", "setting": "Rex1-RFP mESCs; 275 mM", "value": 11, "unit": "%"}, {"measurement": "Bright subpopulation", "setting": "Rex1-RFP mESCs; 300 mM", "value": "61.8+/−3.7%"}, {"measurement": "Dim subpopulation", "setting": "Rex1-RFP mESCs; 300 mM", "value": "24.4+/−2.9%"}, {"measurement": "Intermediate + Dim", "setting": "Rex1-RFP mESCs; 300 mM", "value": 28.1, "unit": "%"}, {"measurement": "Intermediate subpopulation", "setting": "Rex1-RFP mESCs; 300 mM", "value": "13.8+/−2.1%"}, {"measurement": "Bright subpopulation", "setting": "Rex1-RFP mESCs; 300 mM, listed as Sorbitol", "value": 61.8, "unit": "%"}, {"measurement": "Dim subpopulation", "setting": "Rex1-RFP mESCs; 300 mM, listed as Sorbitol", "value": 24.4, "unit": "%"}, {"measurement": "Intermediate subpopulation", "setting": "Rex1-RFP mESCs; 300 mM, listed as Sorbitol", "value": 13.8, "unit": "%"}, {"measurement": "increase in intermediate dim ESCs", "setting": "Rex1-RFP mESCs; to 300 mM", "value": 3.1, "unit": "%"}]}
